{"source": "patent US6358885B1", "about": "“Substituted phenylheterocyclic herbicides” (Mississippi State University, priority 1992, dated 2002)", "key": {"[1]": {"tested_on": "soybean", "test": "Test B preemergence/postemergence greenhouse plant response rating 0 to 10", "type": "in vivo, Glycine max", "details": "for Plant response rating, Soybean: 0 to 10 scale", "in_short": "(§1)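 Test chemicals, dissolved in a non-phytotoxic solvent, were applied to soil at planting and, at the same time, over foliage of seedlings at the one to four leaf stage.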"}, "[2]": {"tested_on": "chickweed", "test": "Test C preemergence/postemergence greenhouse plant response rating 0 to 100", "type": "in vivo, Stellaria media", "details": "for Plant response rating, Chickweed: 125 g/ha, 0 to 100 scale", "in_short": "(§2)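 Compounds in non-phytotoxic solvent applied preemergence to sandy loam one day after planting, postemergence at the 1–4 leaf stage, or to ~2.5 cm floodwater over silt loam.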"}, "[3]": {"tested_on": "morningglory", "test": "Test B preemergence/postemergence greenhouse plant response rating 0 to 10", "type": "in vivo, Ipomoea hederacea", "details": "for Plant response rating, Morningglory: 0 to 10 scale", "in_short": "as §1"}, "[4]": {"tested_on": "morningglory", "test": "Test C preemergence/postemergence greenhouse plant response rating 0 to 100", "type": "in vivo, Ipomoea hederacea", "details": "for Plant response rating, Morningglory: 125 g/ha, 0 to 100 scale", "in_short": "as §2"}, "[5]": {"tested_on": "lambsquarters", "test": "Test B preemergence/postemergence greenhouse plant response rating 0 to 10", "type": "in vivo, Chenopodium album", "details": "for Plant response rating, Lambsquarter: 0 to 10 scale", "in_short": "as §1"}, "[6]": {"tested_on": "barley", "test": "Test B preemergence/postemergence greenhouse plant response rating 0 to 10", "type": "in vivo, Hordeum vulgare", "details": "for Plant response rating, Barley: 0 to 10 scale", "in_short": "as §1"}, "[7]": {"tested_on": "giant foxtail", "test": "Test C preemergence/postemergence greenhouse plant response rating 0 to 100", "type": "in vivo, Setaria faberii", "details": "for Plant response rating, Giant foxtail: 125 g/ha, 0 to 100 scale", "in_short": "as §2"}, "[8]": {"tested_on": "sorghum", "test": "Test C preemergence/postemergence greenhouse plant response rating 0 to 100", "type": "in vivo, Sorghum bicolor", "details": "for Plant response rating, Sorghum: 125 g/ha, 0 to 100 scale", "in_short": "as §2"}, "[9]": {"tested_on": "blackgrass", "test": "Test C preemergence/postemergence greenhouse plant response rating 0 to 100", "type": "in vivo, Alopecurus myosuroides", "details": "for Plant response rating, Blackgrass: 125 g/ha, 0 to 100 scale; for Plant response rating (0 to 100), Blackgrass: Rate 2 g/ha", "in_short": "as §2"}}, "data": [{"smiles": "CCOCOc1cc(-c2nn3c(c2Cl)CCCC3)c(F)cc1Cl", "note": "[Compound 59]", "values": [{"measurement": "Plant response rating, Soybean", "setting": "[1]; POSTEMERGENCE, Rate 50 g/ha", "result": 8}, {"measurement": "Plant response rating, Soybean", "setting": "[1]; PREEMERGENCE, Rate 50 g/ha", "result": 0}, {"measurement": "Plant response rating (0 to 10 scale), Soybean", "setting": "[1]; PREEMERGENCE, Rate 200 g/ha", "result": 4}, {"measurement": "Plant response rating, Soybean", "setting": "[1]; Rate 200 g/ha, POSTEMERGENCE", "result": 7}, {"measurement": "Plant response rating, Chickweed", "setting": "[2]; POSTEMERGENCE", "result": 90}, {"measurement": "Plant response rating (0 to 100), Chickweed", "setting": "[2]; POSTEMERGENCE, Rate 2 g/ha", "result": 20}, {"measurement": "Plant response rating, Chickweed", "setting": "[2]; PREEMERGENCE", "result": 30}, {"measurement": "Plant response rating (0 to 100), Chickweed", "setting": "[2]; PREEMERGENCE, Rate 2 g/ha", "result": 0}, {"measurement": "Plant response rating (0 to 100), Chickweed", "setting": "[2]; Rate 8 g/ha, POSTEMERGENCE", "result": 40}, {"measurement": "Plant response rating (0 to 100), Chickweed", "setting": "[2]; Rate 8 g/ha, PREEMERGENCE", "result": 0}, {"measurement": "Plant response rating (0 to 100), Chickweed", "setting": "[2]; Rate 31 g/ha, POSTEMERGENCE", "result": 70}, {"measurement": "Plant response rating (0 to 100), Chickweed", "setting": "[2]; Rate 31 g/ha, PREEMERGENCE", "result": 10}, {"measurement": "Plant response rating, Morningglory", "setting": "[3]; POSTEMERGENCE, Rate 50 g/ha", "result": 8}, {"measurement": "Plant response rating, Morningglory", "setting": "[3]; PREEMERGENCE, Rate 50 g/ha", "result": 2}, {"measurement": "Plant response rating (0 to 10 scale), Morningglory", "setting": "[3]; PREEMERGENCE, Rate 200 g/ha", "result": 6}, {"measurement": "Plant response rating, Morningglory", "setting": "[3]; Rate 200 g/ha, POSTEMERGENCE", "result": 10}, {"measurement": "Plant response rating, Morningglory", "setting": "[4]; POSTEMERGENCE", "result": 85}, {"measurement": "Plant response rating (0 to 100), Morningglory", "setting": "[4]; POSTEMERGENCE, Rate 2 g/ha", "result": 70}, {"measurement": "Plant response rating, Morningglory", "setting": "[4]; PREEMERGENCE", "result": 10}, {"measurement": "Plant response rating (0 to 100), Morningglory", "setting": "[4]; PREEMERGENCE, Rate 2 g/ha", "result": 0}, {"measurement": "Plant response rating (0 to 100), Morningglory", "setting": "[4]; Rate 8 g/ha, POSTEMERGENCE", "result": 70}, {"measurement": "Plant response rating (0 to 100), Morningglory", "setting": "[4]; Rate 8 g/ha, PREEMERGENCE", "result": 0}, {"measurement": "Plant response rating (0 to 100), Morningglory", "setting": "[4]; Rate 31 g/ha, POSTEMERGENCE", "result": 85}, {"measurement": "Plant response rating (0 to 100), Morningglory", "setting": "[4]; Rate 31 g/ha, PREEMERGENCE", "result": 10}, {"measurement": "Plant response rating, Lambsquarter", "setting": "[5]; POSTEMERGENCE, Rate 50 g/ha", "result": 10}, {"measurement": "Plant response rating, Lambsquarter", "setting": "[5]; PREEMERGENCE, Rate 50 g/ha", "result": 10}, {"measurement": "Plant response rating (0 to 10 scale), Lambsquarter", "setting": "[5]; PREEMERGENCE, Rate 200 g/ha", "result": 10}, {"measurement": "Plant response rating, Lambsquarter", "setting": "[5]; Rate 200 g/ha, POSTEMERGENCE", "result": 10}, {"measurement": "Plant response rating, Barley", "setting": "[6]; POSTEMERGENCE, Rate 50 g/ha", "result": 4}, {"measurement": "Plant response rating, Barley", "setting": "[6]; PREEMERGENCE, Rate 50 g/ha", "result": 2}, {"measurement": "Plant response rating (0 to 10 scale), Barley", "setting": "[6]; PREEMERGENCE, Rate 200 g/ha", "result": 5}, {"measurement": "Plant response rating, Barley", "setting": "[6]; Rate 200 g/ha, POSTEMERGENCE", "result": 4}, {"measurement": "Plant response rating, Giant foxtail", "setting": "[7]; POSTEMERGENCE", "result": 90}, {"measurement": "Plant response rating (0 to 100), Giant foxtail", "setting": "[7]; POSTEMERGENCE, Rate 2 g/ha", "result": 20}, {"measurement": "Plant response rating, Giant foxtail", "setting": "[7]; PREEMERGENCE", "result": 90}, {"measurement": "Plant response rating (0 to 100), Giant foxtail", "setting": "[7]; PREEMERGENCE, Rate 2 g/ha", "result": 0}, {"measurement": "Plant response rating (0 to 100), Giant foxtail", "setting": "[7]; Rate 8 g/ha, POSTEMERGENCE", "result": 40}, {"measurement": "Plant response rating (0 to 100), Giant foxtail", "setting": "[7]; Rate 8 g/ha, PREEMERGENCE", "result": 10}, {"measurement": "Plant response rating (0 to 100), Giant foxtail", "setting": "[7]; Rate 31 g/ha, POSTEMERGENCE", "result": 70}, {"measurement": "Plant response rating (0 to 100), Giant foxtail", "setting": "[7]; Rate 31 g/ha, PREEMERGENCE", "result": 50}, {"measurement": "Plant response rating, Sorghum", "setting": "[8]; POSTEMERGENCE", "result": 70}, {"measurement": "Plant response rating (0 to 100), Sorghum", "setting": "[8]; POSTEMERGENCE, Rate 2 g/ha", "result": 20}, {"measurement": "Plant response rating, Sorghum", "setting": "[8]; PREEMERGENCE", "result": 20}, {"measurement": "Plant response rating (0 to 100), Sorghum", "setting": "[8]; PREEMERGENCE, Rate 2 g/ha", "result": 0}, {"measurement": "Plant response rating (0 to 100), Sorghum", "setting": "[8]; Rate 8 g/ha, POSTEMERGENCE", "result": 40}, {"measurement": "Plant response rating (0 to 100), Sorghum", "setting": "[8]; Rate 8 g/ha, PREEMERGENCE", "result": 0}, {"measurement": "Plant response rating (0 to 100), Sorghum", "setting": "[8]; Rate 31 g/ha, POSTEMERGENCE", "result": 60}, {"measurement": "Plant response rating (0 to 100), Sorghum", "setting": "[8]; Rate 31 g/ha, PREEMERGENCE", "result": 10}, {"measurement": "Plant response rating, Blackgrass", "setting": "[9]; POSTEMERGENCE", "result": 70}, {"measurement": "Plant response rating (0 to 100), Blackgrass", "setting": "[9]; POSTEMERGENCE", "result": 20}, {"measurement": "Plant response rating, Blackgrass", "setting": "[9]; PREEMERGENCE", "result": 90}, {"measurement": "Plant response rating (0 to 100), Blackgrass", "setting": "[9]; PREEMERGENCE", "result": 0}]}]}
